Measurements published in patent US8952042B2, “FXR (NR1H4) binding and activity modulating compounds” (Phenex Pharmaceuticals AG, priority 2009, dated 2015).

What was measured:
[1] = target: T1, human FXR alpha ligand binding domain (Homo sapiens, UniProt Q96RI1); test: FRET activity assay (ligand mediated cofactor peptide interaction, LANCE); format: biochemical; settings: potency range
T1 construct: made in house; host or cells: E. coli BL21(DE3), vector pDEST15
T1 sequence (Q96RI1 187-472 isoform Q96RI1-2): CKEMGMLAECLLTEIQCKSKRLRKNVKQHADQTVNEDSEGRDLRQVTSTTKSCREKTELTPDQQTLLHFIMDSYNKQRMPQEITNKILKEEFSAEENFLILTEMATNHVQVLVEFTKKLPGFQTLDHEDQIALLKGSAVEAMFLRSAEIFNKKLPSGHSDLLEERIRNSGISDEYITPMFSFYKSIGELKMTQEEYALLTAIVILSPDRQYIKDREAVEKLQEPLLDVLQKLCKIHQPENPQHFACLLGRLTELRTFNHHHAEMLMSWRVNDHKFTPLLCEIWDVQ
Protocol: Determination of a ligand mediated cofactor peptide interaction to quantify ligand binding to the nuclear receptor FXR was performed as follows: Preparation of human FXR alpha ligand binding domain: The human FXRalpha LBD was expressed in E. coli strain BL21(DE3) as an N-terminally GST tagged fusion protein. The DNA encoding the FXR ligand binding domain was cloned into vector pDEST15 (Invitrogen). Expression was under control of an IPTG inducible T7 promoter. The amino acid boundaries of the ligand binding domain were amino acids 187-472 of Database entry NM_005123 (RefSeq). Expression and purification of the FXR-LBD: An overnight preculture of a transformed E. coli strain was diluted 1:20 in LB-Ampicillin medium and grown at 30° C. to an optical density of OD600=0.4-0.6. Gene expression was then induced by addition of 0.5 mM IPTG. Cells were incubated an additional 6 h at 30° C., 180 rpm. Cells were collected by centrifugation (7000×g, 7 min, room temperature). Per liter of original cell culture, cells were resuspended in 10 mL lysis buffer (50 mM Glucose, 50 mM Tris pH 7.9, 1 mM EDTA and 4 mg/mL lysozyme) and left on ice for 30 min. Cells were then subjected to sonication and cell debris removed via centrifugation (22000×g, 30 min, 4° C.). Per 10 mL of supernatant 0.5 mL prewashed Glutathione 4B sepharose slurry (Qiagen) was added and the suspension kept slowly rotating for 1 h at 4° C. Glutathione 4B sepharose beads were pelleted by centrifugation (2000×g, 15 sec, 4° C.) and washed twice in wash buffer (25 mM Tris, 50 mM KCl, 4 mM MgCl2 and 1M NaCl). The pellet was resuspended in 3 mL elution buffer per liter of original culture (elution buffer: 20 mM Tris, 60 mM KCl, 5 mM MgCl2 and 80 mM glutathione added immediately prior to use as powder). The suspension was left rotating for 15 min at 4° C., the beads pelleted and eluted again with half the volume of elution buffer than the first time. The eluates were pooled and dialysed overnight in 20 mM Hepes buffer (pH 7.5) containing 60 mM KCl, 5 mM MgCl2 as well as 1 mM dithiothreitol and 10% (v/v) glycerol. The protein was analysed by SDS-Page.
The method measures the ability of putative ligands to modulate the interaction between the purified bacterial expressed FXR ligand binding domain (LBD) and a synthetic biotinylated peptide based on residues 676-700 of SRC-1 (LCD2, 676-700). […] The ligand binding domain (LBD) of FXR was expressed as fusion protein with GST in BL-21 cells using the vector pDEST15. Cells were lysed by sonication, and the fusion proteins purified over glutathione sepharose (Pharmacia) according to the manufacturers instructions. For screening of compounds for their influence on the FXR-peptide interaction, the Perkin Elmer LANCE technology was applied. This method relies on the binding dependent energy transfer from a donor to an acceptor fluorophor attached to the binding partner of interest. For ease of handling and reduction of background from compound fluorescence LANCE technology makes use of generic fluorophore labels and time resolved detection Assays were done in a final volume of 25 μL in a 384 well plate, in a Tris-based buffer (20 mM Tris-HCl pH 7.5; 60 mM KCl, 5 mM MgCl2; 35 ng/μL BSA), containing 20-60 ng/well recombinantly expressed FXR-LBD fused to GST, 200-600 nM N-terminally biotinylated peptide, representing SRC1 aminoacids 676-700, 200 ng/well Streptavidin-xIAPC conjugate (Prozyme) and 6-10 ng/well Eu W1024—antiGST (Perkin Elmer). DMSO content of the samples was kept at 1%. After generation of the assay mix and diluting the potentially FXR modulating ligands, the assay was equilibrated for one hour in the dark at room temperature in FIA-plates black 384 well (Greiner). The LANCE signal was detected by a Perkin Elmer VICTOR2V™ Multilabel Counter. The results were visualized by plotting the ratio between the emitted light at 665 and 615 nm.

[2] = target: T2, FXR ligand binding domain (Homo sapiens, UniProt Q96RI1); test: Mammalian One Hybrid (M1H) Gal4 reporter assay in HEK293 cells; format: cell-based; settings: potency range
T2 construct: expressed in transfected cells; host or cells: HEK293 cells (DSMZ), transient transfection of pCMV-BD-FXR-LBD
T2 sequence (Q96RI1 187-472 isoform Q96RI1-2): T1 sequence (Q96RI1 187-472 isoform Q96RI1-2)
Protocol: Determination of a ligand mediated Gal4 promoter driven transactivation to quantify ligand binding mediated activation of FXR was performed as follows: The cDNA part encoding the FXR ligand binding domain was cloned into vector pCMV-BD (Stratagene) as a fusion to the yeast GAL4 DNA binding domain under the control of the CMV promoter. The amino acid boundaries of the ligand binding domain were amino acids 187-472 of Database entry NM_005123 (RefSeq). The plasmid pFR-Luc (Stratagene) was used as the reporter plasmid, containing a synthetic promoter with five tandem repeats of the yeast GAL4 binding sites, driving the expression of the Photinus pyralis (American firefly) luciferase gene as the reporter gene. In order to improve experimental accuracy the plasmid pRL-CMV (Promega) was cotransfected. pRL-CMV contains the constitutive CMV promoter, controlling the expression of the Renilla reniformis luciferase. All Gal4 reporter gene assays were done in HEK293 cells (obtained from DSMZ, Braunschweig, Germany) grown in MEM with L-Glutamine and Earle's BSS supplemented with 10% fetal bovine serum, 0.1 mM nonessential amino acids, 1 mM sodium pyruvate, and 100 units Penicillin/[…] per mL at 37° C. in 5% CO2. Medium and supplements were obtained from Invitrogen. For the assay, […] were plated per well in 96 well plates in 100 μL per well MEM without Phenol Red and L-Glutamine and with Earle's BSS supplemented with 10% charcoal/dextran treated FBS (HyClone, South Logan, Utah), 0.1 mM nonessential amino acids, 2 mM glutamine, 1 mM sodium pyruvate, and 100 units Penicillin/[…] per mL, incubated at 37° C. in 5% CO2. The following day the cells were >90% confluence. Medium was removed and cells were transiently transfected using 20 μL per well of a OptiMEM—polyethylene-imine-based transfection-reagent (OptiMEM, Invitrogen; Polyethyleneimine, Aldrich Cat No. 40, 827-7) including the three plasmids described above. MEM with the same composition as used for plating cells was added 2-4 h after addition of transfection mixture. Then compound stocks, prediluted in MEM were added (final vehicle concentration not exceeding 0.1%). Cells were incubated for additional 16 h before firefly and renilla luciferase activities were measured sequentially in the same cell extract using a Dual-Light-Luciferase-Assay system (Dyer et al., Anal. Biochem. 2000, 282, 158-161). All experiments were done in triplicates.

Compound	EC50 [1]	EC50 [2]
Cn1nc(C(=O)O)c2ccc(C3CC3c3ccc(OCc4c(-c5c(Cl)cccc5Cl)noc4C4CC4)cc3Cl)cc21 (racemic) [Example 13, 6-(2-(2-chloro-4-((5-cyclopropyl-3-(2,6-dichlorophenyl)isoxazol-4-yl)methoxy)phenyl)cyclopropyl)-1-methyl-1H-indazole-3-carboxylic acid]	10 to 100 nM	10 to 100 nM
O=C(O)c1cccc(C2CC2c2ccc(OCc3c(-c4c(Cl)cccc4Cl)noc3C3CC3)cc2Cl)c1 (single isomer, unassigned; (+)) [Example 5b, (+)-3-(2-(2-chloro-4-((5-cyclopropyl-3-(2,6-dichlorophenyl)isoxazol-4-yl)methoxy)phenyl)cyclopropyl)benzoic acid]	> 100 nM	> 100 nM
O=C(O)c1ccc(C2CC2c2ccc(OCc3c(-c4c(Cl)cccc4Cl)noc3C3CC3)cc2Cl)cc1 (single isomer, unassigned; (+)) [Example 12b, (+)-4-(2-(2-chloro-4-((5-cyclopropyl-3-(2,6-dichlorophenyl)isoxazol-4-yl)methoxy)phenyl)cyclopropyl)benzoic acid]	> 100 nM	> 100 nM
Cn1nc(C(=O)O)c2ccc(C3CC3c3ccc(OCc4c(-c5c(Cl)cccc5Cl)noc4C4CC4)cc3Cl)cc21 (single isomer, unassigned; (+)) [Example 13a, (+)-6-(2-(2-chloro-4-((5-cyclopropyl-3-(2,6-dichlorophenyl)isoxazol-4-yl)methoxy)phenyl)cyclopropyl)-1-methyl-1H-indazole-3-carboxylic acid]	10 to 100 nM	10 to 100 nM
O=C(O)c1cccc(C2CC2c2ccc(OCc3c(-c4c(Cl)cccc4Cl)noc3C3CC3)cc2Cl)c1 (single isomer, unassigned; (-)) [Example 5a, (−)-3-(2-(2-chloro-4-((5-cyclopropyl-3-(2,6-dichlorophenyl)isoxazol-4-yl)methoxy)phenyl)cyclopropyl)benzoic acid]	< 10 nM	10 to 100 nM
Cn1nc(C(=O)O)c2ccc(C3CC3c3ccc(OCc4c(-c5c(Cl)cccc5Cl)noc4C4CC4)cc3Cl)cc21 (single isomer, unassigned; (-)) [Example 13b, (−)-6-(2-(2-chloro-4-((5-cyclopropyl-3-(2,6-dichlorophenyl)isoxazol-4-yl)methoxy)phenyl)cyclopropyl)-1-methyl-1H-indazole-3-carboxylic acid]	< 10 nM	< 10 nM
O=C(O)c1cccc(C2CC2c2ccc(OCc3c(-c4c(Cl)cncc4Cl)noc3C3CC3)cc2Cl)c1 (stereo not shown) [Example 1, 3-(2-(2-chloro-4-((5-cyclopropyl-3-(3,5-dichloropyridin-4-yl)isoxazol-4-yl)methoxy)phenyl)cyclopropyl)-benzoic acid]	10 to 100 nM	10 to 100 nM
O=C(O)c1cccc(C2CC2c2ccc(OCc3c(-c4c(Cl)c[n+]([O-])cc4Cl)noc3C3CC3)cc2Cl)c1 (stereo not shown) [Example 2, 4-(4-((4-(2-(3-carboxyphenyl)cyclopropyl)-3-chlorophenoxy)methyl)-5-cyclopropylisoxazol-3-yl)-3,5-dichloropyridine 1-oxide]	10 to 100 nM	10 to 100 nM
CC(C)c1nnn(-c2c(Cl)cccc2Cl)c1COc1ccc(C2CC2c2cccc(C(=O)O)c2)c(Cl)c1 (stereo not shown) [Example 3, 3-(2-(2-chloro-4-((1-(2,6-dichlorophenyl)-4-isopropyl-1H-1,2,3-triazol-5-yl)methoxy)phenyl)cyclopropyl)benzoic acid]	10 to 100 nM	10 to 100 nM
CC(C)c1onc(-c2c(Cl)cccc2Cl)c1COc1ccc(C2CC2c2cccc(C(=O)O)c2)c(Cl)c1 (stereo not shown) [Example 6, 3-(2-(2-chloro-4-((3-(2,6-dichlorophenyl)-5-isopropylisoxazol-4-yl)methoxy)phenyl)cyclopropyl)benzoic acid]	10 to 100 nM	10 to 100 nM
Clc1cc(OCc2c(-c3c(Cl)cccc3Cl)noc2C2CC2)ccc1C1CC1c1ccc(-c2nnn[nH]2)nc1 (stereo not shown) [Example 7, 4-((4-(2-(6-(1H-tetrazol-5-yl)pyridin-3-yl)cyclopropyl)-3-chlorophenoxy)methyl)-5-cyclopropyl-3-(2,6-dichlorophenyl)isoxazole]	10 to 100 nM	10 to 100 nM
O=C(O)c1ccc(C2CC2c2ccc(OCc3c(-c4c(Cl)cccc4Cl)noc3C3CC3)cc2Cl)cn1 (stereo not shown) [Example 8, 5-(2-(2-chloro-4-((5-cyclopropyl-3-(2,6-dichlorophenyl)isoxazol-4-yl)methoxy)-phenyl)cyclopropyl)picolinic acid]	10 to 100 nM	10 to 100 nM
O=C(NCCS(=O)(=O)O)c1ccc(C2CC2c2ccc(OCc3c(-c4c(Cl)cccc4Cl)noc3C3CC3)cc2Cl)cc1 (stereo not shown) [Example 15, 2-(4-(2-(2-chloro-4-((5-cyclopropyl-3-(2,6-dichlorophenyl)isoxazol-4-yl)methoxy)phenyl)cyclopropyl)benzamido)ethanesulfonic acid]	10 to 100 nM	> 100 nM
CC(C)(O)c1onc(-c2c(Cl)cccc2Cl)c1COc1ccc(C2CC2c2ccc(C(=O)O)cc2)c(Cl)c1 (stereo not shown) [Example 17, 4-(2-(2-chloro-4-((3-(2,6-dichlorophenyl)-5-(2-hydroxypropan-2-yl)isoxazol-4-yl)methoxy)phenyl)cyclopropyl)benzoic acid]	> 100 nM	> 100 nM
